Values joined by “and” are separate entries in the source; they are usually repeats but may differ in a detail not shown here. Equal entries are not always repeated.

We go through one substance from US12071469B2, “Peptide compounds for suppressing inflammation” (Duke University, priority 2011, dated 2024).

For series [1], the system named is mice with traumatic brain injury. The series can be described thus: Morris water maze neurocognitive performance after traumatic brain injury. In kind it is in vivo, mouse. Particulars: 0.05 mg/kg or 0.2 mg/kg iv at 2 h and 6 h after traumatic brain injury; days 28-31 post-injury; FIG. 4. The protocol:
An experimental murine model for traumatic brain injury was developed. Laskowitz, et al. (2010) J. Neurotrauma, 27:1983-95. Male mice (age 12-14 weeks) were anesthetized with 4.3% isoflurane in oxygen in an anesthesia induction box for 90 seconds. The trachea was intubated and the lungs mechanically ventilated with 1.4% isoflurane in a 50/50 mixture of oxygen and nitrogen. Body temperature was maintained at 37° C. using surface heating/cooling. The top of the skull was exposed by a midline incision to identify anatomical landmarks, and a concave 3-mm metallic disc was secured to the skull surface with an adhesive, directly midline and just caudal to the bregma. […]
Another experimental procedure for measuring neurological deficits was developed using a Morris water maze. […] Latency to finding the platform and swimming speed were recorded using a computerized video tracking system (Ethovision 2.2.14; available from Noldus Information Technology, Leesburg VA).
Groups of mice received either an ApoE mimetic peptide (SEQ ID NO:4; 0.05 mg/kg) or carrier (saline) by intravenous tail vein injection at 2 hours and again at 6 hours after traumatic brain injury induced as described in Example 3. Each mouse was tested for vestibulomotor function by rotorod latency measured before and after injury, as described in Example 3. […]

Series [2] can be described thus: Mouse brain PK of VSRRR (CNS penetration) by LC/MS. Type of series: in vivo. Particulars: for Brain Pilot, Ratio to Heavy / Brain Pilot, fmol/mg (tissue) / Brain Pilot, pg/mg (tissue): individual mouse brains, single-point internal standard quantitation; for Single-Dosed Brain PK, fmol analyte/mg tissue / Single-Dosed Brain PK, pg/mg of tissue: single dose 0.8 mg/kg, average of 5 animals. The protocol: Mouse Brain PK on Therapeutic Peptide, VSRRR—Sample Preparation Procedure
Mice brains were weighed in a 1.5 mL Eppendorf tube. The entire brain was transferred to a 14 mL culture tube. 1 mL of 8 M urea in 50 mM ammonium formate (pH 10) with 2.5 pmol/mL SIL peptide per 100 mg wet tissue weight was added. For standard controls and QCs, 10 μL of peptide standard per every 100 mg of brain tissue (1%) was added with 990 μL of the aforementioned buffer to bring to a 1 mL total volume for every 100 mg of tissue. A tissue tearor was used on each sample for about 20 sec. 1.5 mL of the sample was transferred to a 2-mL Eppendorf tube. Each sample was probe sonicated for 3 bursts of 5 sec per burst. The sample was then heated at 37° C. for 30 min. The sample was centrifuged for 30 min at 15,000 rpm. Very little precipitate was visible at the bottom of each tube and avoided when pipetting 1 mL of the sample (out of 1.5 mL total volume) and placing directly onto an OASIS® plate. Salts and proteins were removed using the OASIS® HLB Solid Phase Extraction (SPE) protocol described above for the plasma sample. After the extraction, the samples were dried down in a Speed Vac and reconstitute in 25 μL of 1% ACN/0.1% TFA/0.02% HFBA. 3 μL of the sample was injected into a SYNAPT™ G2 HDMS™ (Waters Corp.) using Full Scan MS method, with a run time of 16.5 min total. Peptide(s) of interest were monitored between 3-8 min.
Table 5 and FIG. 10 show the average amount of peptide in the CNS sample from 5 animals over time after a single dosing of 0.8 mg/kg of the peptide.
The analyte concentrations were calculated from a single-point internal standard quantitation. […] The analyte concentrations were calculated from a 7-point standard curve calibration curve equation generated with samples between 1.4 pg analyte/mg tissue and 89.2 pg/mg (2× serial dilutions). The inter-animal reproducibility for the brain analyses is high ([…] 21% CV). The drug molecule in the single-dosed brain Cmax is about 9 pg analyte/mg tissue.

Regarding Ac-VSRRR-NH2 [VR-55, Ac-VSRRR-NH2], the “neurocognitive outcomes (Morris water maze latency)” value in series [1] is given as “improved neurocognitive outcomes”. In addition, the “Brain Pilot, Ratio to Heavy” value was 0.245 and 0.371 in series [2] (3 min); 0.157 and 0.435 in series [2] (10 min). The “Brain Pilot, fmol/mg (tissue)” value in series [2] (3 min) was 15 fmol/mg (tissue) and 23 fmol/mg (tissue); in series [2] (10 min) it was 10 fmol/mg (tissue) and 27 fmol/mg (tissue). The “Brain Pilot, pg/mg (tissue)” value in series [2] (3 min) is 11 pg/mg (tissue) and 17 pg/mg (tissue); in series [2] (10 min), 7 pg/mg (tissue) and 19 pg/mg (tissue). Besides, the “single-dosed brain Cmax” value in series [2] (mouse brain, single dose) is reported as “about 9 pg analyte/mg tissue”. The “Single-Dosed Brain PK, fmol analyte/mg tissue” value in series [2] (mouse brain, 1 min) is 10.91 fmol analyte/mg tissue; in series [2] (mouse brain, 3 min), 12.30 fmol analyte/mg tissue; in series [2] (mouse brain, 5 min) it was 11.26 fmol analyte/mg tissue; in series [2] (mouse brain, 10 min), 11.83 fmol analyte/mg tissue; in series [2] (mouse brain, 15 min) it was 10.56 fmol analyte/mg tissue; in series [2] (mouse brain, 30 min) it was 8.87 fmol analyte/mg tissue. For the same substance, the “Single-Dosed Brain PK, fmol analyte/mg tissue” value in series [2] (mouse brain, 60 min) is 7.64 fmol analyte/mg tissue. Moreover, the “Single-Dosed Brain PK, pg/mg of tissue” value in series [2] (mouse brain, 1 min) is 7.79 pg/mg of tissue; in series [2] (mouse brain, 3 min), 8.79 pg/mg of tissue; in series [2] (mouse brain, 5 min), 8.04 pg/mg of tissue; in series [2] (mouse brain, 10 min), 8.44 pg/mg of tissue; in series [2] (mouse brain, 15 min) it was 7.54 pg/mg of tissue; in series [2] (mouse brain, 30 min), 6.33 pg/mg of tissue. Besides, the “Single-Dosed Brain PK, pg/mg of tissue” value in series [2] (mouse brain, 60 min) is recorded as 5.46 pg/mg of tissue. Further, the CNS penetration entry in series [2] (preliminary data, brain pilot) is “CNS penetration”.
